The values below come from patent publication US20250302833A1, “PHARMACEUTICAL COMPOSITION FOR TREATING OR PREVENTING CYSTIC DISEASE” (CHUGAI SEIYAKU KABUSHIKI KAISHA, priority 2022, published 2025).

Assay type in all cases: cell-based
One test concerns the target T1, human PiT1 (Homo sapiens, UniProt Q8WUM9).
T1 construct: expressed in transfected cells; host or cells: CHO cells, transient transfection with Fugene HD
T1 sequence (Q8WUM9 1-679): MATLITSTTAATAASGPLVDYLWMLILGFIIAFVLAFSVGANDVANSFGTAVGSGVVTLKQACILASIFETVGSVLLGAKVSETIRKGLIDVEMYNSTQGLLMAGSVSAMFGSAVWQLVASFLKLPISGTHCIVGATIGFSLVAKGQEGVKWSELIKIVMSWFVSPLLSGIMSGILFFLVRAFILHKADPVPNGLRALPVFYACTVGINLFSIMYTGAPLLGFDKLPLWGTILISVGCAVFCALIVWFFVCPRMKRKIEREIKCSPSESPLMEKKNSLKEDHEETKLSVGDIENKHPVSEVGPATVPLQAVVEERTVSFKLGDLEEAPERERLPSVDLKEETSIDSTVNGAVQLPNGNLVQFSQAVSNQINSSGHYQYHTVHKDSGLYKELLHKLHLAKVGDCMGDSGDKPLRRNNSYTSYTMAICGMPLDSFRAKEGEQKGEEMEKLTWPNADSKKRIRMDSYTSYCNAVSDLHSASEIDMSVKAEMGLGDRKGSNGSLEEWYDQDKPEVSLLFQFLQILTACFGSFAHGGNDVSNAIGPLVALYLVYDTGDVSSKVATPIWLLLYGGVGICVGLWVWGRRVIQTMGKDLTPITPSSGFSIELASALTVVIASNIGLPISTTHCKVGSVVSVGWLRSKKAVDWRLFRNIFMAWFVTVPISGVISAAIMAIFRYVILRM
The experiment in a line: 33PO4 uptake inhibition in CHO cells expressing human PiT1. Particulars: CHO cells transiently expressing human PiT1, pH 6.5. Here is the method: For transient expression, human NaPi-IIb expression plasmids, human PiT1 expression plasmids, human PiT2 expression plasmids, and Fugene HD Transfection (Promega Corporation) were added to CHO cells using a 96-well plate, and the plate was incubated in a C02 incubator for 16 hours. The medium was replaced with buffer A (145 mM choline chloride, 3 mM KCl, 1 mM CaCl2), 0.5 mM MgCl2, 5 mM glucose, 5 mM MES, (pH 6.5)), and then replaced with buffer B (145 mM NaCl, 3 mM KCl, 1 mM CaCl2, 0.5 mM MgCl2, 5 mM glucose, 5 mM MES (pH 6.5)) to which a test compound was added at the final concentration of 0.01, 0.03, 0.1, 0.3, 1, 3, 10, or 30 μM, buffer A to which DMSO was added, or buffer B to which DMSO was added. After a certain time, a 1/20 amount of buffer A containing ^33PO4 (PerkinElmer Japan G. K.) was added and reacted at room temperature. After washing with ice-cooled buffer A, a liquid scintillator (MicroScint™-20, item number 6013621, PerkinElmer Japan G.K.) was added, and the ^33PO4 uptake amount was measured with the top count (Top Count NXT, PerkinElmer Japan G.K.). The inhibition rate was determined by the following formula. Here, a certain time was set to 10 minutes. […]

The next test concerns the target T2, human NaPi-IIb (Homo sapiens, UniProt O95436).
T2 construct: expressed in transfected cells; host or cells: CHO cells, transient transfection with Fugene HD
T2 sequence (O95436 1-690): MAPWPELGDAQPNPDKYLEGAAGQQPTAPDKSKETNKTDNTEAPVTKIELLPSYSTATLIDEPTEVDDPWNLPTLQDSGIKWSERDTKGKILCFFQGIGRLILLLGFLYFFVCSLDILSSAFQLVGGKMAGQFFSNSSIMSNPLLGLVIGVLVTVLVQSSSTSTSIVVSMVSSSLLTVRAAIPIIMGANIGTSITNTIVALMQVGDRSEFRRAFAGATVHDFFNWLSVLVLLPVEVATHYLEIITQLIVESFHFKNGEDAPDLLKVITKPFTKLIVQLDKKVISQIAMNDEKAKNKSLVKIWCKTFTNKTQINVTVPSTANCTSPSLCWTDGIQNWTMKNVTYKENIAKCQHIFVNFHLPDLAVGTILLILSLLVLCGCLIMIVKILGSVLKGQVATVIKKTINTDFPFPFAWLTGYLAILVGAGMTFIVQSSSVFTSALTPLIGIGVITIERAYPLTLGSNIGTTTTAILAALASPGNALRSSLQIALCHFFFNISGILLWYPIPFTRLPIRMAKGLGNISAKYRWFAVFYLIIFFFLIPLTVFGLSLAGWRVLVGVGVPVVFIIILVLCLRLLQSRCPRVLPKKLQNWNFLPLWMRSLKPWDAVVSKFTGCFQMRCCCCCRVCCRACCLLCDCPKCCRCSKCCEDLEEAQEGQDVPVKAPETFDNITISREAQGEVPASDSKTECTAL
The experiment in a line: 33PO4 uptake inhibition in CHO cells expressing human NaPi-IIb. Particulars: CHO cells transiently expressing human NaPi-IIb, pH 6.5. The protocol: For transient expression, human NaPi-IIb expression plasmids, human PiT1 expression plasmids, human PiT2 expression plasmids, and Fugene HD Transfection (Promega Corporation) were added to CHO cells using a 96-well plate, and the plate was incubated in a C02 incubator for 16 hours. The medium was replaced with buffer A (145 mM choline chloride, 3 mM KCl, 1 mM CaCl2), 0.5 mM MgCl2, 5 mM glucose, 5 mM MES, (pH 6.5)), and then replaced with buffer B (145 mM NaCl, 3 mM KCl, 1 mM CaCl2, 0.5 mM MgCl2, 5 mM glucose, 5 mM MES (pH 6.5)) to which a test compound was added at the final concentration of 0.01, 0.03, 0.1, 0.3, 1, 3, 10, or 30 μM, buffer A to which DMSO was added, or buffer B to which DMSO was added. After a certain time, a 1/20 amount of buffer A containing ^33PO4 (PerkinElmer Japan G. K.) was added and reacted at room temperature. After washing with ice-cooled buffer A, a liquid scintillator (MicroScint™-20, item number 6013621, PerkinElmer Japan G.K.) was added, and the ^33PO4 uptake amount was measured with the top count (Top Count NXT, PerkinElmer Japan G.K.). The inhibition rate was determined by the following formula. Here, a certain time was set to 10 minutes. The phrase “a 1/20 amount of buffer A containing ^33PO4 (PerkinElmer Japan G.K.) was added” refers to “buffer A containing ^33PO4 (PerkinElmer Japan G.K.) was added in an amount of 1/20 of the amount of solution filling the medium”.
The 50% ^33PO4-uptake inhibition concentrations (ICs) (UM) in a cell expressing human NaPi-Ilb, human PiT1, and human PiT2 were calculated from a straight line through two points sandwiching 50% inhibition rate. It should be noted that compounds 1 and 2 were not measured for baman PiT1 and human PiT2, which was indicated as “-” in Table 1.

The test system of test [1] is primary cells from kidney tissues of human ADPKD patients. Description: Inhibition of three-dimensional cyst formation using primary cells from kidney tissue of human ADPKD patient. Conditions: 168 h, test compound 30 μM, forskolin + ITS stimulation, 7 days 3D culture, average N=3, read-out: Inhibition rate (%) of cyst formation. The protocol: Primary cells were isolated from kidney tissues of human ADPKD patients. Under two-dimensions, the isolated cells were cultured for 2 days using DMEM/F-12 (Thermo Fisher Scientific, Inc.) supplemented with 10% FBS. Subsequently, three-dimensional culture was performed for 7 days using 3D Ready Atelocollagen (KOKEN CO., LTD.). During three-dimensional culture, 50 µM forskolin (Sigma-Aldrich Co. LLC) and ITS liquid media supplements (Sigma-Aldrich Co. LLC) were added as stimulating agents to some of the wells to form cysts, and a test compound was added at the final concentration of 30 μM. The test compound was also added to other wells at the final concentration of 30 μM. After 7 days of three-dimensional culture, it was fixed with 4% paraformaldehyde (Thermo Fisher Scientific, Inc.), and nucleic acid staining and cell membrane staining were performed with Hoechst 33342 (Thermo Fisher Scientific, Inc.) and CellLight Plasma Membrane-RFP, BacMam 2.0 (Thermo Fisher Scientific, Inc.). Three-dimensional imaging and volume analysis were performed using Operetta CLS and image analysis software Harmony (PerkinElmer Japan G.K.). The inhibition rate was determined by the following formula.

As for `CCCN([C@H]1CC[C@H](C(=O)[O-])CC1)S(=O)(=O)c1cccc(C(=O)Nc2sc3c(c2C(=O)Nc2ccc(CCCc4ccc(C(=O)[O-])cc4)cc2)CCCC3)c1.[Na+].[Na+]` [Compound 4, Disodium; 4-[3-[4-[[2-[[3-[(4-carboxylatocyclohexyl)-propylsulfamoyl]benzoyl]ami-no]-4,5,6,7-tetrahydro-1-benzothiophene-3-carbonyl]amino]phenyl]pro-pyl]benzoic acid], the IC50 was > 30 µM against human PiT1 and 0.031 µM against human NaPi-IIb. In addition, the inhibition at 30 µM in test [1] amounted to 94.4%.
